The record followed here is ChEMBL document CHEMBL4257444, “Novel bipharmacophoric inhibitors of the cholinesterases with affinity to the muscarinic receptors M1 and M2” (Medchemcomm, 2017).

For data set [1], the target named is Acetylcholinesterase (Homo sapiens, UniProt P22303). Nature of the data set: Inhibition of recombinant human AChE expressed in HEK293 cells using acetylthiocholine iodide as substrate pretreated for 4.5 mins followed by substrate addition and measured after 2.5 mins by Ellman's method. (In general: Ellman's reagent forms a yellow product with free thiols.)
Another data set is described as follows: physchem. The note with it: octanol/water.
For data set [2], the target named is Cholinesterase (Equus caballus, UniProt P81908).
Description: Inhibition of equine serum BChE using butyrylthiocholine iodide as substrate pretreated for 4.5 mins followed by substrate addition and measured after 2.5 mins by Ellman's method
The target in data set [3] is Cholinesterase (Homo sapiens, UniProt P06276). Description: Inhibition of human serum BChE using butyrylthiocholine iodide as substrate pretreated for 4.5 mins followed by substrate addition and measured after 2.5 mins by Ellman's method.
For the next data set, the system named is HepG2. Nature of the data set: cells. The settings on record: Homo sapiens, HepG2, 72 h.
The next data set is filed under the species Homo sapiens. Description: Selectivity ratio of compound effect for displacement of [3H]NMS from recombinant human M2 receptor expressed in CHO cell membranes to displacement of [3H]NMS from recombinant human M1 receptor expressed in CHO cell membranes.
In data set [4] the target is Acetylcholinesterase (Electrophorus electricus, UniProt O42275).
Description: Inhibition of electric eel AChE using acetylthiocholine iodide as substrate pretreated for 4.5 mins followed by substrate addition and measured after 2.5 mins by Ellman's method
For data set [5], the target named is Acetylcholinesterase (Electrophorus electricus) (UniProt O42275). Nature of the data set: Inhibition of electric eel AChE at 100 uM using acetylthiocholine iodide as substrate pretreated for 4.5 mins followed by substrate addition and measured after 2.5 mins by Ellman's method relative to control.

Molecules are shown by their SMILES.

Cholinesterase (Equus caballus, UniProt P81908), sequence (P81908 whole entry): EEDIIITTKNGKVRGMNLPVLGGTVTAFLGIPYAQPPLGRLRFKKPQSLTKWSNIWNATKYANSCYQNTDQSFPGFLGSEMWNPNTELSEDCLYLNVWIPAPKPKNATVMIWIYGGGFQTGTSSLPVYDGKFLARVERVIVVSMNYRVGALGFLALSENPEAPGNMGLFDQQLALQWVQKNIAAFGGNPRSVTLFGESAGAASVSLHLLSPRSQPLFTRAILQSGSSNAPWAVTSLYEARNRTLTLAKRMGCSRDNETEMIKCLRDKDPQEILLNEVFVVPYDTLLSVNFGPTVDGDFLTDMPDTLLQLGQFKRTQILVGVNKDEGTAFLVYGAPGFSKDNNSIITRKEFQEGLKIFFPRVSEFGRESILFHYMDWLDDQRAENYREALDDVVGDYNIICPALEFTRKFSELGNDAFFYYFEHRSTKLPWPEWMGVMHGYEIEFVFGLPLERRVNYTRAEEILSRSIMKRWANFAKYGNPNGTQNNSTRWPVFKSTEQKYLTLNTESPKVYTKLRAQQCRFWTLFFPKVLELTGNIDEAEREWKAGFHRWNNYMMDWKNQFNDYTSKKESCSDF
Acetylcholinesterase (Electrophorus electricus, UniProt O42275), sequence (O42275 whole entry): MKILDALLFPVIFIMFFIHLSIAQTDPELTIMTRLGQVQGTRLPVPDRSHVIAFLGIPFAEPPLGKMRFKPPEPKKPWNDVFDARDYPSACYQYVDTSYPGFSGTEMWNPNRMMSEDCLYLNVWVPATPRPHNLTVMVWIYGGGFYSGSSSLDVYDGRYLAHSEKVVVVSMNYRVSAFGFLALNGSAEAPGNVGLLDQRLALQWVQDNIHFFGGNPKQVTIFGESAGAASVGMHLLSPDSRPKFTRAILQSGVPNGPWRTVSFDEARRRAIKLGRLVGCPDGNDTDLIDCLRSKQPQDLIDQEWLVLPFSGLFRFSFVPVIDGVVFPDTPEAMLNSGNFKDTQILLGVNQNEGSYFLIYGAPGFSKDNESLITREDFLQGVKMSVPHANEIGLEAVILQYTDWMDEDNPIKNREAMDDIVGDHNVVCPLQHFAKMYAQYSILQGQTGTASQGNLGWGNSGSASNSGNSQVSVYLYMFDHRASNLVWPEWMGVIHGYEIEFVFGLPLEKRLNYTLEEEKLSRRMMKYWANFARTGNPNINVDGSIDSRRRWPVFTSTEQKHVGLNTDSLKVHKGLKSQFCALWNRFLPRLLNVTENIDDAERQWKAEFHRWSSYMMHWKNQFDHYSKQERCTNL
Cholinesterase (Homo sapiens, UniProt P06276), sequence (P06276 whole entry): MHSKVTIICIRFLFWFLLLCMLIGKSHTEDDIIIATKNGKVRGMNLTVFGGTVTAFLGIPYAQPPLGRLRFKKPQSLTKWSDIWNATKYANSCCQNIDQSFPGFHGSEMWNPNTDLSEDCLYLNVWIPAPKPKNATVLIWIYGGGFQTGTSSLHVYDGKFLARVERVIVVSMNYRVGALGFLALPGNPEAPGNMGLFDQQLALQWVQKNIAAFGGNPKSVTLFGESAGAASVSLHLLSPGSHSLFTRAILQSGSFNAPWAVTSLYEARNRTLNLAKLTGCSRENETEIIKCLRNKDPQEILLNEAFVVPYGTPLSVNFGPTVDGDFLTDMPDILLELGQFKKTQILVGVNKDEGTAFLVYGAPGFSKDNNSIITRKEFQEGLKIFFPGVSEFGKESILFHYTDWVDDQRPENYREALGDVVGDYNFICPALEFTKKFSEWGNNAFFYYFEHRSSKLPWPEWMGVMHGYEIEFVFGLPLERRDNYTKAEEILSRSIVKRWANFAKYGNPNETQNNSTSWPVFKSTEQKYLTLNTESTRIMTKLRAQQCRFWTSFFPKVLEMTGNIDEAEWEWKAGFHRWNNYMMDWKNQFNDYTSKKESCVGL
Acetylcholinesterase (Homo sapiens, UniProt P22303), sequence (P22303 whole entry): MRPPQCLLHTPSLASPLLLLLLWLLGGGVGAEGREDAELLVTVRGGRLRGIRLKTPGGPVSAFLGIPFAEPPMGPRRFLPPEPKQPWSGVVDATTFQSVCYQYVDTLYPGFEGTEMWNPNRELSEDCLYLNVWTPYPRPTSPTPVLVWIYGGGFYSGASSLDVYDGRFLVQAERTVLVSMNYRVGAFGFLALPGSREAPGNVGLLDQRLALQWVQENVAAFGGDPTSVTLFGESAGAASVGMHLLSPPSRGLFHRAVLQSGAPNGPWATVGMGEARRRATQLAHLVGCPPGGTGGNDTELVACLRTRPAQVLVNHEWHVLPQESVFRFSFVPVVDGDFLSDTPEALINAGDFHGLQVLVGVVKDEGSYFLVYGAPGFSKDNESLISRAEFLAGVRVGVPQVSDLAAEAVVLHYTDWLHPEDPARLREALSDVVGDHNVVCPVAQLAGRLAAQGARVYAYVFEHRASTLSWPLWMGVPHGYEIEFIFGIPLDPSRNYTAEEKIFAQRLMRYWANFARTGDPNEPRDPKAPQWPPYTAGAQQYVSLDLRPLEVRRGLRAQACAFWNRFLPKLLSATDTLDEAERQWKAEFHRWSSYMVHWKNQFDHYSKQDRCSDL
Acetylcholinesterase (Electrophorus electricus), sequence (O42275 24-633 limits assumed): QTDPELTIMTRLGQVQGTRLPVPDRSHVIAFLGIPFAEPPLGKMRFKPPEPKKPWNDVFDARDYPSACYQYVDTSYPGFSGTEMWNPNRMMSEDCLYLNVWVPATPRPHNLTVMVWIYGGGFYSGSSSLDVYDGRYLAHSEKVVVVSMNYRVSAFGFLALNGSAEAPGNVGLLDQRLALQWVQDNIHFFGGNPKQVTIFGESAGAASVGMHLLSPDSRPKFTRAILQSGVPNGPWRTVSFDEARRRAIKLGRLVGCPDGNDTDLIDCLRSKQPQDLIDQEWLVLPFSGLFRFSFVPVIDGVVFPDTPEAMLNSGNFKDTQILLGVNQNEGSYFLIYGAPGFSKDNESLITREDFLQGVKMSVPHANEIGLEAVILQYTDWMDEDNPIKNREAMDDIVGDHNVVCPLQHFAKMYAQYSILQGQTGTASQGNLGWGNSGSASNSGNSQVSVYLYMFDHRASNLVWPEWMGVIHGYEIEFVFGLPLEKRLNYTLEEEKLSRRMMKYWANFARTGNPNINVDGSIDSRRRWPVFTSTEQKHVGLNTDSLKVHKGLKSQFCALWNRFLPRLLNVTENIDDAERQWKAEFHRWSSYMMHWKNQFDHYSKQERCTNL
Description for HepG2: Cytotoxicity against human HepG2 cells after 72 hrs by alamar blue assay
Description for physchem: Octanol/water partition co-efficient, log P of the compound by RP-HPLC analysis

For the molecule `C[N+](C)(CC#CCOC1=NOCC1)CCCCCCCCCCNc1c2c(nc3ccccc13)CCCC2`, the IC50 is 1.78 nM at Acetylcholinesterase [1]; 1.78 nM against Cholinesterase [2]; 1.82 nM at Cholinesterase [3]; 32200 nM in the data set on HepG2; 0.155 nM against Acetylcholinesterase [4]. For the same molecule, the lipophilicity (logP) in the data set “physchem” was found to be 3.28. In the data set listed under Homo sapiens, the Selectivity ratio came out at 8.
In turn, `C[N+](C)(CC#CCOc1ccon1)CCCC[N+](C)(C)CCCN1C(=O)c2ccccc2C1=O` displayed a logP in the data set “physchem” of 1.55. Moreover, at Cholinesterase [2], the half-inhibitory concentration (IC50) is 85100 nM. In data set [5], the inhibition is 19.1%.
In the data set “physchem”, `C[N+](C)(CC#CCOC1=NOCC1)CCCCCCC[N+](C)(C)CCCN1C(=O)c2ccccc2C1=O` returned a log partition coefficient (logP) of 0.79. In addition, the 50% inhibitory concentration (IC50) against Cholinesterase [2] is 6460 nM; against Acetylcholinesterase [4], 14800 nM.
As for `CC(C)(CN1C(=O)c2cccc3cccc(c23)C1=O)C[N+](C)(C)CCCCCCCC[N+](C)(C)CC#CCOC1=NOCC1`, the logP in the data set “physchem” came to 1.61. In addition, the IC50 on Cholinesterase [2] was 347 nM; against Acetylcholinesterase [4], 794 nM.
With `C[N+](C)(CC#CCOC1=NOCC1)CCCCCCCCC[N+](C)(C)CCCN1C(=O)c2ccccc2C1=O`, the logP in “physchem” was 0.79. In addition, the IC50 was 13200 nM against Cholinesterase [2] and 15800 nM against Acetylcholinesterase [4].
Turning to `BrCCCCCCCNc1c2c(nc3ccccc13)CCCC2`, the IC50 on Cholinesterase [2] was 263 nM; on Acetylcholinesterase [4], 0.398 nM.
Molecule `CC(C)(CN1C(=O)c2cccc3cccc(c23)C1=O)C[N+](C)(C)CCCCCCCCC[N+](C)(C)CC#CCOC1=NOCC1` gave a lipophilicity (logP) in the data set “physchem” of 1.69. Also, the concentration for half-maximal inhibition (IC50) was 324 nM at Cholinesterase [2] and 363 nM against Acetylcholinesterase [4].
In “physchem”, `CC(C)(CN1C(=O)c2cccc3cccc(c23)C1=O)C[N+](C)(C)CCCCCCC[N+](C)(C)CC#CCOC1=NOCC1` gave a logP of 1.7. Besides, the figures for the half-maximal inhibitory concentration (IC50) at Cholinesterase [2] and on Acetylcholinesterase [4] were 204 nM and 912 nM, respectively.
With `c1ccc2c(CCCCCCCCCCNc3c4c(nc5ccccc35)CCCC4)c3c(nc2c1)CCCC3`, the 50% inhibitory concentration (IC50) against Cholinesterase [2] was 0.457 nM; with HepG2 it was under 1250 nM; on Acetylcholinesterase [4] it was 1 nM.
In “physchem”, `C[N+](C)(CC#CCOc1ccon1)CCCCCC[N+](C)(C)CCCN1C(=O)c2ccccc2C1=O` had a log partition coefficient (logP) of 0.99. At Cholinesterase [2], this molecule had a half-inhibitory concentration (IC50) of 38900 nM. Further, in data set [5], the inhibition was 32.2%.
On to `C[N+](C)(CC#CCOc1ccon1)CCCCCCCC[N+](C)(C)CCCN1C(=O)c2ccccc2C1=O`, for which the lipophilicity (logP) in “physchem” came to 0.83. In addition, the IC50 at Cholinesterase [2] is 7940 nM; on Acetylcholinesterase [4], 67600 nM.
On to `c1ccc2c(NCCCCCCCNc3c4c(nc5ccccc35)CCCC4)c3c(nc2c1)CCCC3`, for which the IC50 is 0.724 nM on Cholinesterase [2], under 1380 nM in the data set with HepG2 and 0.0331 nM against Acetylcholinesterase [4].
The molecule `C[N+](C)(CC#CCOC1=NOCC1)CCCCCCCC[N+](C)(C)CCCN1C(=O)c2ccccc2C1=O` came in with a logP in the data set “physchem” of 0.78. Moreover, the IC50 on Cholinesterase [2] is 7410 nM; against Acetylcholinesterase [4] it was 12900 nM.
In the case of `C[N+](C)(CC#CCOC1=NOCC1)CCCCCCCNc1c2c(nc3ccccc13)CCCC2`, the concentration for half-maximal inhibition (IC50) on Acetylcholinesterase [1] was 2 nM; on Cholinesterase [2], 5.13 nM; on Cholinesterase [3], 4.57 nM; with HepG2, over 160000 nM; against Acetylcholinesterase [4], 1.74 nM. Moreover, the logP in the data set “physchem” was determined as 2.05. Moreover, the Selectivity ratio in the data set listed under Homo sapiens was 3.
For `BrCCCCCCCCCCNc1c2c(nc3ccccc13)CCCC2`, the values for the half-inhibitory concentration (IC50) against Cholinesterase [2] and on Acetylcholinesterase [4] were 8.71 nM and 0.562 nM, respectively.
In the case of `C[N+](C)(CC#CCOC1=NOCC1)CCCCCC[N+]1(C)CCC(N2C(=O)c3cccc4cccc(c34)C2=O)CC1` (configuration not stated), the log partition coefficient (logP) in the data set “physchem” is 1.54. For the same molecule, the 50% inhibitory concentration (IC50) is 851 nM at Cholinesterase [2] and 1050 nM against Acetylcholinesterase [4].
Regarding `C[N+](C)(CC#CCOC1=NOCC1)CCCCCC[N+]1(C)CCC(N2C(=O)c3ccccc3C2=O)CC1` (configuration not stated), in “physchem”, the lipophilicity (logP) was determined as 0.84. In addition, the 50% inhibitory concentration (IC50) against Cholinesterase [2] was 10700 nM; against Acetylcholinesterase [4], 2400 nM.
`C[N+](C)(CC#CCOC1=NOCC1)CCCCCCCCCC[N+](C)(C)CCCN1C(=O)c2ccccc2C1=O`: the IC50 at Acetylcholinesterase [1] was 13200 nM; at Cholinesterase [2], 4270 nM; at Cholinesterase [3] it was 1950 nM; against Acetylcholinesterase [4], 5500 nM. This molecule also yielded a logP in the data set “physchem” of 0.8.
For `CC(C)(CN1C(=O)c2cccc3cccc(c23)C1=O)C[N+](C)(C)CCCCCCCCCC[N+](C)(C)CC#CCOC1=NOCC1`, the 50% inhibitory concentration (IC50) was 1070 nM at Acetylcholinesterase [1], 102 nM against Cholinesterase [2], 263 nM on Cholinesterase [3] and 316 nM against Acetylcholinesterase [4]. Also, the logP in the data set “physchem” is 1.77.

For orientation: IC50 means the concentration that gives 50% inhibition. Usually logP stands for a log measure of how a compound divides between an organic and an aqueous phase. A higher logP goes with a more lipophilic compound. By inhibition is commonly meant the change of the read-out against control, counted positive when it falls.
